Data: patent US20070275968A1, “Substituted Biphenyl Derivative” (priority 2004, published 2007)

SMILES	melting point
Cc1ccc(-c2cccc(-c3nc(C(C)C)[nH]c3-c3cccc(C)n3)c2)cc1 [Example 3, 2-[2-Isopropyl-4-(4′-methyl-1,1′-biphenyl-3-yl)-1H-imidazol-5-yl]-6-methylpyridine]	76 to 79 °C
COc1ccc(-c2cccc(-c3nc(C(C)C)[nH]c3-c3cccc(C)n3)c2)cc1 [Example 4, 2-[2-Isopropyl-4-(4′-methoxy-1,1′-biphenyl-3-yl)-1H-imidazol-5-yl]-6-methylpyridine]	75 to 77 °C
Cc1cccc(-c2[nH]c(C(C)C)nc2-c2cccc(-c3ccc(C(F)(F)F)cc3)c2)n1 [Example 5, 2-{2-Isopropyl-4-[4′-(trifluoromethyl)-1,1′-biphenyl-3-yl]-1H-imidazol-5-yl}-6-methylpyridine]	91 to 93 °C
Cc1cccc(-c2[nH]c(C(C)C)nc2-c2cccc(-c3ccccc3F)c2)n1 [Example 6, 2-[4-(2′-Fluoro-1,1′-biphenyl-3-yl)-2-isopropyl-1H-imidazol-5-yl]-6-methylpyridine]	153 to 155 °C
Cc1cccc(-c2[nH]c(C(C)C)nc2-c2cccc(-c3cccc(F)c3)c2)n1 [Example 7, 2-[4-(3′-Fluoro-1,1′-biphenyl-3-yl)-2-isopropyl-1H-imidazol-5-yl]-6-methylpyridine]	140 to 142 °C
Cc1cccc(-c2[nH]c(C(C)C)nc2-c2cccc(-c3ccc(F)cc3)c2)n1 [Example 8, 2-[4-(4′-Fluoro-1,1′-biphenyl-3-yl)-2-isopropyl-1H-imidazol-5-yl]-6-methylpyridine]	83 to 85 °C
Cc1cccc(-c2[nH]c(C(C)C)nc2-c2cccc(-c3ccc(F)cc3F)c2)n1 [Example 9, 2-[4-(2′,4′-Difluoro-1,1′-biphenyl-3-yl)-2-isopropyl-1H-imidazol-5-yl]-6-methylpyridine]	70 to 72 °C
Cc1cccc(-c2[nH]c(C(C)C)nc2-c2cccc(-c3ccc(OC(F)(F)F)cc3)c2)n1 [Example 10, 2-{2-Isopropyl-4-[4′-(trifluoromethoxy)-1,1′-biphenyl-3-yl]-1H-imidazol-5-yl}-6-methylpyridine]	120 to 122 °C
Cc1cccc(-c2[nH]c(C(C)C)nc2-c2cccc(-c3cccnc3)c2)n1 [Example 11, 2-[2-Isopropyl-4-(3-pyridin-3-ylphenyl)-1H-imidazol-5-yl]-6-methylpyridine]	74 to 77 °C
Cc1cccc(-c2[nH]c(C(C)C)nc2-c2cccc(-c3ccncc3)c2)n1 [Example 12, 2-[2-Isopropyl-4-(3-pyridin-4-ylphenyl)-1H-imidazol-5-yl]-6-methylpyridine]	84 to 86 °C
COc1ccc(-c2cccc(-c3nc(C(C)C)[nH]c3-c3cccc(C)n3)c2)cn1 [Example 13, 5-{3-[2-Isopropyl-5-(6-methylpyridin-2-yl)-1H-imidazol-4-yl]phenyl}-2-methoxypyridine]	72 to 74 °C
Cc1cccc(-c2[nH]c(C(C)C)nc2-c2cccc(-c3ccsc3)c2)n1 [Example 14, 2-[2-Isopropyl-4-(3-thien-3-ylphenyl)-1H-imidazol-5-yl]-6-methylpyridine]	83 to 85 °C
Cc1cccc(-c2[nH]c(C(C)C)nc2-c2cccc(-c3ccc(NS(C)(=O)=O)cc3)c2)n1 [Example 15, N-{3′-[2-Isopropyl-5-(6-methylpyridin-2-yl)-1H-imidazol-4-yl]-1,1′-biphenyl-4-yl}methanesulfonamide]	128 to 130 °C
CSc1ccc(-c2cccc(-c3nc(C(C)C)[nH]c3-c3cccc(C)n3)c2)cc1 [Example 16, 2-{2-Isopropyl-4-[4′-(methylthio)-1,1′-biphenyl-3-yl]-1H-imidazol-5-yl}-6-methylpyridine]	80 to 82 °C
Cc1cccc(-c2[nH]c(C(C)C)nc2-c2cccc(-c3cccc(S(C)(=O)=O)c3)c2)n1 [Example 18, 2-{2-Isopropyl-4-[3′-(methylsulfonyl)-1,1′-biphenyl-3-yl]-1H-imidazol-5-yl}-6-methylpyridine]	97 to 100 °C
Cc1cccc(-c2[nH]c(C(C)C)nc2-c2cccc(-c3cccc(NS(C)(=O)=O)c3)c2)n1 [Example 19, N-{3′-[2-Isopropyl-5-(6-methylpyridin-2-yl)-1H-imidazol-4-yl]-1,1′-biphenyl-3-yl}methanesulfonamide]	108 to 112 °C
Cc1cccc(-c2[nH]c(C(C)C)nc2-c2cccc(-c3cccs3)c2)n1 [Example 20, 2-[2-Isopropyl-4-(3-thien-2-ylphenyl)-1H-imidazol-5-yl]-6-methylpyridine]	73 to 76 °C
Cc1cccc(-c2[nH]c(C(C)C)nc2-c2cccc(-c3ccoc3)c2)n1 [Example 21, 2-{4-[3-(3-Furyl)phenyl]-2-isopropyl-1H-imidazol-5-yl}-6-methylpyridine]	74 to 78 °C
Cc1cccc(-c2[nH]c(C(C)C)nc2-c2cccc(-c3ccc[nH]3)c2)n1 [Example 23, 2-{2-Isopropyl-4-[3-(1H-pyrrol-2-yl)phenyl]-1H-imidazol-5-yl}-6-methylpyridine]	103 to 107 °C
CC(=O)c1ccc(-c2cccc(-c3nc(C(C)C)[nH]c3-c3cccc(C)n3)c2)cc1 [Example 24, 1-{3′-[2-Isopropyl-5-(6-methylpyridin-2-yl)-1H-imidazol-4-yl]-1,1′-biphenyl-4-yl}ethanone]	84 to 87 °C
CCS(=O)(=O)c1ccc(-c2cccc(-c3nc(C(C)C)[nH]c3-c3cccc(C)n3)c2)cc1 [Example 25, 2-{2-Isopropyl-4-[4′-(ethylsulfonyl)-1,1′-biphenyl-3-yl]-1H-imidazol-5-yl}-6-methylpyridine]	103 to 116 °C
Cc1cccc(-c2[nH]c(C(C)C)nc2-c2cccc(-c3ccc([N+](=O)[O-])cc3)c2)n1 [Example 27, 2-[2-Isopropyl-4-(4′-nitro-1,1′-biphenyl-3-yl)-1H-imidazol-5-yl]-6-methylpyridine]	95 to 105 °C
Cc1cccc(-c2[nH]c(C(C)C)nc2-c2cccc(-c3ccc(N)cc3)c2)n1 [Example 28, 2-[2-Isopropyl-4-(4′-amino-1,1′-biphenyl-3-yl)-1H-imidazol-5-yl]-6-methylpyridine]	107 to 117 °C
Cc1cccc(-c2[nH]c(C(C)C)nc2-c2cccc(-c3ccc(CN)cc3)c2)n1 [Example 29, 1-{3′-[2-Isopropyl-5-(6-methylpyridin-2-yl)-1H-imidazol-4-yl]-1,1′-biphenyl-4-yl}methanamine]	113 to 123 °C (dec.)
CCS(=O)(=O)Nc1ccc(-c2cccc(-c3nc(C(C)C)[nH]c3-c3cccc(C)n3)c2)cc1 [Example 30, N-{3′-[2-Isopropyl-5-(6-methylpyridin-2-yl)-1H-imidazol-4-yl]-1,1′-biphenyl-4-yl}ethanesulfonamide]	123 to 135 °C
Cc1cccc(-c2[nH]c(C(C)C)nc2-c2cccc(-c3ccc(NS(=O)(=O)C4CC4)cc3)c2)n1 [Example 31, N-{3′-[2-Isopropyl-5-(6-methylpyridin-2-yl)-1H-imidazol-4-yl]-1,1′-biphenyl-4-yl}cyclopropylsulfonamide]	135 to 145 °C
CC(=O)Nc1ccc(-c2cccc(-c3nc(C(C)C)[nH]c3-c3cccc(C)n3)c2)cc1 [Example 32, N-{3′-[2-Isopropyl-5-(6-methylpyridin-2-yl)-1H-imidazol-4-yl]-1,1′-biphenyl-4-yl}acetamide]	140 to 145 °C
